# Source: patent US20060188913A1, “Methods and products for enhancing immune responses using imidazoquinoline compounds” (University of Iowa Research Foundation, priority 2001, published 2006)
# Columns and labels:
# hTLR7 [1] = target: T1, hTLR7 (Homo sapiens, UniProt Q9NYK1); experiment: IL-8 production in 293 fibroblasts transiently expressing hTLR7; format: cell-based; settings: CpG-ODN 2 μM, LPS 100 ng/ml
# T1 construct: plasmids (pcDNA3.1 constructs) coding for full length hTLR2, hTLR7, hTLR8 and hTLR9; expressed in transfected cells; host or cells: 293T cells
# T1 sequence (Q9NYK1 27-1049): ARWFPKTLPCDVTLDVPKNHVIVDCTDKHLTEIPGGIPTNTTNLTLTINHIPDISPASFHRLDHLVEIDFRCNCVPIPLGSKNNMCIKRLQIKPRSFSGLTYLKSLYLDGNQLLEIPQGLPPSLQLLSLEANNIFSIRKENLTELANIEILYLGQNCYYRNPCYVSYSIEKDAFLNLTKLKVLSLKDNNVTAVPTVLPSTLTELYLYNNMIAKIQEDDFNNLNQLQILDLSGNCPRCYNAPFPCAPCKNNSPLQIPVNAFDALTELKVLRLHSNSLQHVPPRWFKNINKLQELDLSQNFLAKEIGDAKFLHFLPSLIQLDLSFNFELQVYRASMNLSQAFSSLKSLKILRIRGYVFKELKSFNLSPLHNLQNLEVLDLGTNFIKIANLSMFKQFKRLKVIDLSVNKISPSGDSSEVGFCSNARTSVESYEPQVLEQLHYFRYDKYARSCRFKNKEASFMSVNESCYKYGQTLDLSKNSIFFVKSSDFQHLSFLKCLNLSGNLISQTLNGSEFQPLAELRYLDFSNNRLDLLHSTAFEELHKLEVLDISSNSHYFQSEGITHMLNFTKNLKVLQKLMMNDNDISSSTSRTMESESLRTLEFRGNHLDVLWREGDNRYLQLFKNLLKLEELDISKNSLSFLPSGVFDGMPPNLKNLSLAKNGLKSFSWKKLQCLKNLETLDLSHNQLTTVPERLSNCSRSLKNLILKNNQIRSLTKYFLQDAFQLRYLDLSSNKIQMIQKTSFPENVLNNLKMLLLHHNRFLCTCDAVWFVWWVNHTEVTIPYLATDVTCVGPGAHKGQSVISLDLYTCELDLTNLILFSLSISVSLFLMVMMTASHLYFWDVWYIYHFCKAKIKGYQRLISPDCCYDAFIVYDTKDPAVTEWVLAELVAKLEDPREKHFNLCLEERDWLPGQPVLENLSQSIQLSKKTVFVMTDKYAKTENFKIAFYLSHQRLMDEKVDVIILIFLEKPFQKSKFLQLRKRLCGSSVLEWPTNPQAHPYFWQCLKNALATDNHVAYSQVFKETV
# Description: (§1) The cloned human TLR7 and human TLR8 cDNA were cloned into the expression vector pCDNA3. 1 (−) from Invitrogen using the NotI site. Utilizing a “gain of function” assay, hTLR7 and hTLR8 expression vectors were transiently expressed in human 293 fibroblasts (ATCC, CRL-1573) using the calcium phosphate method. Activation was monitored by IL-8 production after stimulus with CpG-ODN (2006 or 1668, 2 μM) or LPS (100 ng/ml).
# hTLR8 [2] = target: T2, hTLR8 (Homo sapiens, UniProt Q9NR97); experiment: IL-8 production in 293 fibroblasts transiently expressing hTLR8; format: cell-based; settings: CpG-ODN 2 μM, LPS 100 ng/ml
# T2 construct: plasmids (pcDNA3.1 constructs) coding for full length hTLR2, hTLR7, hTLR8 and hTLR9; expressed in transfected cells; host or cells: 293T cells
# T2 sequence (Q9NR97 27-1041): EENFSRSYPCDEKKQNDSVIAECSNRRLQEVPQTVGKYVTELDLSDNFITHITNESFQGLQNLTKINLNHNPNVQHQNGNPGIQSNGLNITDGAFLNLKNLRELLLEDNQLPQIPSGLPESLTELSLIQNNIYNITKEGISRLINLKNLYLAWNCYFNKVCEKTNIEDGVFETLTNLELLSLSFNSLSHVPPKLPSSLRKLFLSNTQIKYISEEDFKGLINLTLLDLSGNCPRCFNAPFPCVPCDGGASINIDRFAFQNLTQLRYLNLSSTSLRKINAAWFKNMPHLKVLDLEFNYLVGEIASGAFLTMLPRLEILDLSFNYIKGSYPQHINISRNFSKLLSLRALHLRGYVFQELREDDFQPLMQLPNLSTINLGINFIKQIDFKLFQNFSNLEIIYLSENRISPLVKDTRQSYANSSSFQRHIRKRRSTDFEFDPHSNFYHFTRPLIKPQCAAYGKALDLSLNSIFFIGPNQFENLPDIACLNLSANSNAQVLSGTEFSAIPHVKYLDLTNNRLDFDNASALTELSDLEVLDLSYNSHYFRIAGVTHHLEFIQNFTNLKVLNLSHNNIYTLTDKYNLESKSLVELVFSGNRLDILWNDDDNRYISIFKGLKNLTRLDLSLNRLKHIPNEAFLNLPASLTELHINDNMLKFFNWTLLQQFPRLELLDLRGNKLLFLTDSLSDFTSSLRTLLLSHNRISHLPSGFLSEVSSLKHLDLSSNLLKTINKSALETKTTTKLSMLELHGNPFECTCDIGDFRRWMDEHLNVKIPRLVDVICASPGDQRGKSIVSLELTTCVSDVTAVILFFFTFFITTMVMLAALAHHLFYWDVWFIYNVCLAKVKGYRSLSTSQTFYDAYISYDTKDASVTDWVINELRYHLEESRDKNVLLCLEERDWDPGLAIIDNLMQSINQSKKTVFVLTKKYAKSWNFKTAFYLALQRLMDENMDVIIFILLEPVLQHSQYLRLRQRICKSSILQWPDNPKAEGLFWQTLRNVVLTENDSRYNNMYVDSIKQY
# Description: as §1
# human PBMC [3] = experiment: IP-10 secretion by human PBMC (ELISA); format: cell-based; settings: 48 hours, ODN 0.2-3.0 μg/ml versus R-848 0.01-1.0 μg/ml, FIG. 6A
# Description: (§2) This experiment investigated the induction of the Th1 cytokine IFN-gamma as well as the Th1-related chemokine IP-10 (IFN-gamma inducible protein). Unfractionated human PBMC from three donors were incubated for 48 hours in the presence of varying concentrations of R-848 (0.01-1.0 μg/ml), varying concentrations of CpG ODN 2006 (0.2-3.0 μg/ml), varying concentrations of negative control ODN 5177 (0.2-3.0 μg/ml), SEB (50 ng/ml), or media alone, and then the concentrations of IP-10 and IFN-gamma in the supernatant were measured by ELISA.
# In FIG. 6B, the combined effects of R-848 and CpG ODN (e.g., #2006) on IP-10 secretion are shown. Human PBMCs from three different donors were incubated for 48 hours with the indicated concentrations of ODNs and R-848, either individually or together. Supernatants were harvested and IP-10 was measured by ELISA. The data represent mean cytokine amounts.
# human PBMC [4] = experiment: IFN-gamma secretion by human PBMC (ELISA); format: cell-based; settings: 48 hours, compared to R-848, not shown
# Description: as §2
# hTLR8 [5] = target: T2, hTLR8; experiment: NF-kappa B luciferase activation in 293T cells transiently transfected with hTLR8; format: cell-based; settings: hTLR8-transfected 293T cells
# Description: (§3) Cells used for transfections were 293T (human embryo kidney cells, T-antigen transfected) or 293-TLR9-Luc (stable transfectants, human embryo kidney cells expressing the human TLR9 receptor and containing a genomic NF-kappa B-luciferase cassette).
# (§4) Transfections were performed in six-well plates. Cells were plated the day before transfection at 4×10^5/well in DMEM+10% FCS.
# (§5) Constructs: TLR cDNAs were cloned into pcDNA3.1. NF-kappa B activation was measured by using an 5× NF-kappa B-Luciferase construct (Stratagene). Transfection efficiency was determined by using a beta-galactosidase (beta-gal) reporter construct (p beta-Gal-Control, Clontech).
# (§6) Stimulation was performed 24 h after transfection. Medium of the cells was reduced to 1 ml (without medium change) and cells were stimulated with indicated amounts of R-848, LPS, ODN 8954, 2006 and IL-1 beta for 16 h.
# (§7) Cell extracts were prepared by lysing the cells in 100 μl reporter lysis buffer using the freeze-thaw method. NF-kappa B stimulation was measured through luciferase activity (Promega). All data were normalized for beta-gal expression. Stimulation indices were calculated in reference to luciferase activity of medium without addition of ODN.
# (§8) 293T cells, stably transfected with a NF-kappa B-luciferase reporter construct, were transiently transfected with plasmids (pcDNA3.1 constructs) coding for full length hTLR2, hTLR7, hTLR8 and hTLR9. […]
# hTLR7 [6] = target: T1, hTLR7; experiment: NF-kappa B luciferase activation in 293T cells transiently transfected with hTLR7; format: cell-based; settings: hTLR7-transfected 293T cells
# Description: as §3, §4, §5, §6, §7, §8
# hTLR2 = target: T3, hTLR2 (Homo sapiens, UniProt O60603); experiment: NF-kappa B luciferase activation in 293T cells transfected with hTLR2; format: cell-based
# T3 construct: plasmids (pcDNA3.1 constructs) coding for full length hTLR2, hTLR7, hTLR8 and hTLR9; expressed in transfected cells; host or cells: 293T cells carrying an NF-kappa B-luciferase reporter
# T3 sequence (O60603 21-784): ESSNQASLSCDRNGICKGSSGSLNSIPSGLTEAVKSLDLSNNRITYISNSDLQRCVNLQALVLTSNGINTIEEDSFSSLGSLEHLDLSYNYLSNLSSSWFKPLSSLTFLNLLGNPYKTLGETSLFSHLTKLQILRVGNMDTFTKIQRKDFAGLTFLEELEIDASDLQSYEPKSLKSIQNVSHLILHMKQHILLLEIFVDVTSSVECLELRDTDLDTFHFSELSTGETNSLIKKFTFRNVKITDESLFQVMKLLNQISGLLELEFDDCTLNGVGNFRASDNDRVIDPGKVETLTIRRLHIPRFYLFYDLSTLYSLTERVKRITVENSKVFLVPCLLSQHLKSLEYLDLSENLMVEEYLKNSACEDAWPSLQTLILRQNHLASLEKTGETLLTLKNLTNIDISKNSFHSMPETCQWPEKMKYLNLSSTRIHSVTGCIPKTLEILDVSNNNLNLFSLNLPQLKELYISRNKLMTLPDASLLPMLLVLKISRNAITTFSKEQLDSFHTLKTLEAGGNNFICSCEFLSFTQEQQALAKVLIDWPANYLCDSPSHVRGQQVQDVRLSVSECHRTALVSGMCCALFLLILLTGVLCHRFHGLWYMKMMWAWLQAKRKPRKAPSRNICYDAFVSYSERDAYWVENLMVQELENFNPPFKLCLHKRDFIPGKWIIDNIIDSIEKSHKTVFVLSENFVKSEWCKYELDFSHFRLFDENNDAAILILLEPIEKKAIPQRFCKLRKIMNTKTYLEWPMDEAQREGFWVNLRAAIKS
# Description: as §3, §4, §5, §6, §7, §8
# [7] = tested on: NF-kappa B luciferase reporter gene; experiment: NF-kappa B luciferase reporter in transfected 293T cells, TLR-independent positive control; format: cell-based, human; settings: FIG. 2A
# Description: as §3, §6, §7
# 293T cells, stably transfected with a NF-kappa B-luciferase reporter construct, were transiently transfected with plasmids (pcDNA3.1 constructs) coding for full length hTLR2, hTLR7, hTLR8 and hTLR9. All transfections were normalized to beta-galactosidase activity. Twenty-four hours following transfection, cells were stimulated with R-848, LPS, CpG ODN 8954 (5′ […] 3′, SEQ ID NO:4), CpG ODN 2006, or IL-1 and then assayed for luciferase activity 16 h after stimulation. Each experiment was done at least twice with similar results.
substance,measurement,setting,value
"1668: CpG-ODN TCCATGACGTTCCTGATGCT, SEQ ID NO:12 (listed as DNA, chemistry not fully specified) [compound 1668]",activation monitored by IL-8 production,hTLR7 [1],None of the stimuli used activated
same,activation monitored by IL-8 production,hTLR8 [2],None of the stimuli used activated
"ODN 5177: negative control ODN 5′ TCCGCCTGTGACATGCATT 3′; SEQ ID NO:5 (listed as DNA, chemistry not fully specified)",IP-10 induction,human PBMC [3],but not the negative control ODN 5177 induced similar amounts of IP-10
same,IFN-gamma induction,human PBMC [4],The same result was obtained
lipopolysaccharide [LPS],NF-kappa B activation through hTLR8 (in words),hTLR8 [5],Neither LPS nor the CpG ODN 8954 appeared to activate
same,NF-kappa B activation through hTLR7 (in words),hTLR7 [6],Neither LPS nor the CpG ODN 8954 appeared to activate
same,NF-kappa B activation through hTLR2 (in words),hTLR2,activated by LPS
same,activation monitored by IL-8 production,hTLR7 [1],None of the stimuli used activated
same,activation monitored by IL-8 production,hTLR8 [2],None of the stimuli used activated
"CpG ODN 8954: CpG ODN 5′ GGGGACGACGTCGTGGGGGGG 3′, SEQ ID NO:4 (listed as DNA, chemistry not fully specified)",NF-kappa B activation through hTLR8 (in words),hTLR8 [5],Neither LPS nor the CpG ODN 8954 appeared to activate
same,NF-kappa B activation through hTLR7 (in words),hTLR7 [6],Neither LPS nor the CpG ODN 8954 appeared to activate
IL-1: cytokine used as positive control for NF-kappa B activation,activation of NF-kappa B luciferase reporter gene (in words),[7],activated the NF-kappa B luciferase reporter gene in a TLR-independent manner
